# According to ChEMBL document CHEMBL1132879, “High potent and selective arylpiperazine derivatives as ligands for the 5-HT1A receptor” (Bioorg Med Chem Lett, 2000):
# Tests used:
# [1] = molecular target: T1, Adrenergic receptor alpha-1 (Rattus norvegicus, UniProt P15823+P23944+P43140); assay: Displacement of [3H]prazosin from Alpha-1 adrenergic receptor of rat cortex membranes; format: cell membranes, Membrane
# T1 sequence (P15823 whole entry): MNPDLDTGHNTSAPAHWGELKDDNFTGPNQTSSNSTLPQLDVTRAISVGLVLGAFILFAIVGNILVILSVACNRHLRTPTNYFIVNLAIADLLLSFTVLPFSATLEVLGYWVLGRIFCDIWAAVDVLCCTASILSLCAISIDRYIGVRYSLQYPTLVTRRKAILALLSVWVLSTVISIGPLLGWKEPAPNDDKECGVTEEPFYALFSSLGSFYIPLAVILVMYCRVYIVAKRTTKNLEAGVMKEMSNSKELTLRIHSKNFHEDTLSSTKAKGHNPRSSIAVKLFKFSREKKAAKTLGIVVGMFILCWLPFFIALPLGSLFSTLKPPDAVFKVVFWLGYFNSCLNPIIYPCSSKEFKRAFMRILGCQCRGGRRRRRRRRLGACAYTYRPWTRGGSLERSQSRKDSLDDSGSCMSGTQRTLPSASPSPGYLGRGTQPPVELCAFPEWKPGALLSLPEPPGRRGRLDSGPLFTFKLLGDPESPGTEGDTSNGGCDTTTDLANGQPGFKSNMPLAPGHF
# T1 sequence (P23944 whole entry): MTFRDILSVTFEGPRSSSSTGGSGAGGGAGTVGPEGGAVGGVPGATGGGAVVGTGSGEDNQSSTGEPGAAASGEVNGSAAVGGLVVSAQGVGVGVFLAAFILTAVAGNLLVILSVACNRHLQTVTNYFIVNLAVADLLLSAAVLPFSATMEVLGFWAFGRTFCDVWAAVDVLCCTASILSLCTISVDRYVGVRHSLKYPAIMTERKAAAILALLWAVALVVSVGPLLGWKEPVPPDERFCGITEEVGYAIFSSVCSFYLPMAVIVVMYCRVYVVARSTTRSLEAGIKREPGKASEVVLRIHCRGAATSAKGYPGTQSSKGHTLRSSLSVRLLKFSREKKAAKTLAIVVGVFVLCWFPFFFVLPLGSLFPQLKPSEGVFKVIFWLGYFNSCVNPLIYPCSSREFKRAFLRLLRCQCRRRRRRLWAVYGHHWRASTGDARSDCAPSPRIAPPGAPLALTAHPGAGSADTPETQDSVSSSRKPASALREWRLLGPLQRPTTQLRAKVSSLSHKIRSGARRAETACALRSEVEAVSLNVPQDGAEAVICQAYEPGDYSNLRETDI
# T1 sequence (P43140 whole entry): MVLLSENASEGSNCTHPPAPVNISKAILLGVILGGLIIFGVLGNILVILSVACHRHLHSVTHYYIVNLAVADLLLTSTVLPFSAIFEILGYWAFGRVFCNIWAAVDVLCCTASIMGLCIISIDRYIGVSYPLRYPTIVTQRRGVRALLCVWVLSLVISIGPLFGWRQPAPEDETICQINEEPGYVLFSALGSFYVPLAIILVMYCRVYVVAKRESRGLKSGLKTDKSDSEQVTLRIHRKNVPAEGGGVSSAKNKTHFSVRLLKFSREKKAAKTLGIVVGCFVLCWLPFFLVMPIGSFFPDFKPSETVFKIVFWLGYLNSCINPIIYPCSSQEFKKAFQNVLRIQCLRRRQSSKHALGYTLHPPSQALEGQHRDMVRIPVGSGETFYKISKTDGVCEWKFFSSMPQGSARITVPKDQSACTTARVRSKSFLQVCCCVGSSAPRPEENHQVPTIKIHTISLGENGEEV
# [2] = molecular target: T2, 5-hydroxytryptamine receptor 1A (Rattus norvegicus, UniProt P19327); assay: Displacement of [3H]8-OH-DPAT from 5-hydroxytryptamine 1A receptor of rat hippocampus membranes; format: cell membranes, Membrane
# T2 sequence (P19327 whole entry): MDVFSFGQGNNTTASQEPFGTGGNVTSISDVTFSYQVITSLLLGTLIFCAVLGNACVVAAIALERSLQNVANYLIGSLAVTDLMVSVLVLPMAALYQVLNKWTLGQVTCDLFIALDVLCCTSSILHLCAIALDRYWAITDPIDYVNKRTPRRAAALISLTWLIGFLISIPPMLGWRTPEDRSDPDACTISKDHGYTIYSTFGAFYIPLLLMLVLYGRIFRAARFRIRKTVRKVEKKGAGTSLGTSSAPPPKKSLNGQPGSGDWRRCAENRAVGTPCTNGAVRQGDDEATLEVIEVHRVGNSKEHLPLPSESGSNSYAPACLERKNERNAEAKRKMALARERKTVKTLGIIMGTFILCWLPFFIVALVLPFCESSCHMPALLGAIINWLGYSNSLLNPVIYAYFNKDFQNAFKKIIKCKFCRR
# [3] = molecular target: Serotonin 1a (5-HT1a) receptor/Adrenergic receptor alpha-1 (Rattus norvegicus) (UniProt P15823+P23944+P43140+P19327); assay: Selectivity for 5-HT1A serotonin over alpha-1-adrenergic receptors; format: protein assay
Compound,Ki [1],Ki [2],Selectivity [3]
CCOc1ccccc1-c1nnc(SCCCN2CCN(c3ccccc3OC)CC2)s1,31.5 nM,6.84 nM,4.6
COc1ccccc1N1CCN(CCCSc2nc3sc4c(c3c(=O)n2N)CCC4)CC1,7.39 nM,0.26 nM,28
COc1ccccc1N1CCN(CCCSc2nc3sc(C)c(C)c3c(=O)n2N)CC1,6.26 nM,0.16 nM,39
Cc1sc2nc(SCCCN3CCN(c4ccccc4[N+](=O)[O-])CC3)n(N)c(=O)c2c1C,123 nM,1.46 nM,53
CCOc1ccccc1-c1nnc(SCCCN2CCN(c3ccccc3[N+](=O)[O-])CC2)s1,437 nM,135 nM,3
CCCc1cc2c(=O)n(N)c(SCCCN3CCN(c4ccccc4OC)CC3)nc2s1,19.65 nM,1.4 nM,14
COc1ccccc1N1CCN(CCCSc2nc(N)c3c(C)c(C)sc3n2)CC1,10.8 nM,2.45 nM,4.4

# Second part, the compound after the results:
Ki [1],Ki [2],Selectivity [3],Compound
194.8 nM,9.69 nM,20,CCc1cc2c(=O)n(N)c(SCCCN3CCN(c4ccccc4[N+](=O)[O-])CC3)nc2s1
39.87 nM,3 nM,13,Nn1c(SCCCN2CCN(c3ccccc3[N+](=O)[O-])CC2)nc2sccc2c1=O
434 nM,3.72 nM,117,Cc1sc2nc(SCCCN3CCN(c4ncccn4)CC3)n(N)c(=O)c2c1C
2.48 nM,0.65 nM,3.8,COc1ccccc1N1CCN(CCCSc2nc3sccc3c(=O)n2N)CC1
21.96 nM,0.19 nM,115,CCc1cc2c(=O)n(N)c(SCCCN3CCN(c4ccccc4OC)CC3)nc2s1
366.31 nM,5.06 nM,73,Nn1c(SCCCN2CCN(c3ncccn3)CC2)nc2sccc2c1=O
1946 nM,9.4 nM,207,CCc1cc2c(=O)n(N)c(SCCCN3CCN(c4ncccn4)CC3)nc2s1
